The record followed here is US12545653B2, “Compound as PPAR agonist and application thereof” (USA Elixiria Biotech Inc., priority 2019, dated 2026).

Each structure is given as a SMILES string. pEC50: −log10 of the molar value. “And” between values parts separate entries of the source, which are not always exact repeats. Equal values may be shown once.

For orientation: pEC50 means the EC50 on a negative log10 scale, so that one unit is a factor of ten.

One assay has as its system klotho gene promoter. The experiment in a line: In vitro transcriptional activity of klotho gene (KL-Luc-3 luciferase cell line). The note with it: KL-Luc-3 cells; for pEC50: 16 h, 16 hours incubation. The assay is classed as cell-based. An excerpt:
The activities of these carbonyl-containing cyclic compounds are indicated by the increased expression of klotho gene. […] The present invention retains the DNA fragment of the klotho gene promoter, but replaces the DNA sequence of the coding region of the klotho gene with those of luciferase, so that the degree of activation of the klotho gene promoter and the expression of the klotho gene will be sensitively determined by detecting the luciferase luminescence signal.
Klotho is an important downstream gene of PPARγ pathway. The following experiments tested the properties of the compounds in Table 2 and 3 to activate the klotho gene in vitro. First, a stable cell line, KL-Luc, was constructed. The klotho gene carried by the cell line retained the DNA sequence of klotho gene promoter, but the coding sequence of the klotho gene was replaced with luciferase. KL-Luc fragment includes a promoter sequence of the klotho gene (a DNA region of 18,000 base pairs in length upstream of the transcription start site of the gene) and a luciferase-encoding sequence. To construct the KL-Luc sequence containing lentiviral vector, the KL-Luc fragment was cloned into the pDONR vector using BP recombinase, so that the target fragment had attL recombination sites on both sides. Then the KL-Luc fragment was transferred from the pDONR vector to a lentiviral vector (without exogenous promoter) pLenti6/BLOCK-IT-DEST. The constructed lentiviral vector of the target fragment was then transfected into HEK293T cells, and then the KL-Luc gene lentiviral expression vector and the […] were co-transfected into HEK293T cells to perform lentiviral packaging. The virus was harvested, and virus titer was calculated. And the lentivirus was used to infect target cells. The stable strains were screened by adding drugs. Finally, monoclonal cell lines were selected from polyclonal cells by cell cloning. The effective luciferase expression of each monoclonal cell line was determined by quantitative polymerase chain reaction (qPCR). The inventors chose a third monoclonal cell line (KL-Luc-3) to continue the compound screening. The compounds of interest were the compounds in Table 2 and 3. At the same time, rosiglitazone and pioglitazone were used as a control. KL-Luc-3 cells were divided into 96-well plates at 5000 cells in 80 microL per well, cultured in a 37° C. carbon dioxide incubator with serum-free Duchenne's Modified Eagle's Medium (DMEM) for 6 hours, and then the compounds were added to a final concentration of 0, 0.1, 0.3, 1, 3, 10, 30 micromole/L, with each concentration in triplicate. After 16 hours of incubation, the SteadyLite (PerkinElmer, Waltham, MA) and the GloMax Microplate Luminometer (Promega, USA) were used for quantitation of luciferase activity. The amount of luminescence emitted from each well is positively related to the transcriptional activity of the klotho promoter. A three-parameter Sigmoid function curve was used to fit the obtained data. The abscissa represents the logarithmic value of the concentration, and the ordinate represents the percentage of the activity relative to those of the control. […] In Statistical analysis, the coefficient of variation is used to measure the robustness and repeatability of the experiment. […] The difference is significant with P<0.05. EC50 is a parameter of its activity. The lower the EC50 value, the higher the activity of corresponding compound.

The target of another assay is T1, PPARγ (Homo sapiens, UniProt P37231).
T1 construct: expressed in transfected cells; host or cells: HEK 293 T cells
T1 sequence (P37231 1-505): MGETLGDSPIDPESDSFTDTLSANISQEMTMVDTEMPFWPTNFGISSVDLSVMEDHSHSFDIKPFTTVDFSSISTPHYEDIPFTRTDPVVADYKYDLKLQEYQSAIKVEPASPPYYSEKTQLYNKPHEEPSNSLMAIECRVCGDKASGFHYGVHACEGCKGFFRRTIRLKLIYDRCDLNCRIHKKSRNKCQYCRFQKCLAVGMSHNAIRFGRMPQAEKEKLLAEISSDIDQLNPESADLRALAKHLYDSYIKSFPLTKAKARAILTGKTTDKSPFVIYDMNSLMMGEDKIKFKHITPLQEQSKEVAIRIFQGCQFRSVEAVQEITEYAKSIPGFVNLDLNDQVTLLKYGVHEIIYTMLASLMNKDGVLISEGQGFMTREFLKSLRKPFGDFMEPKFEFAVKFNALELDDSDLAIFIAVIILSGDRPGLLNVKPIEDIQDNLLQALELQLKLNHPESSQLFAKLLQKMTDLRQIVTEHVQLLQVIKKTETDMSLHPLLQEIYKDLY
Nature of the assay: In vitro transcriptional activity of PPARγ gene (PPRE-luciferase reporter, HEK 293 T cells). The note with it: HEK 293 T cells transfected with PPARγ expression and PPRE-luc plasmids, 21 hours; read-out: EC50 of PPARγ gene activation. The assay is classed as cell-based. In general terms: Reporter assays use an easily measured gene product as a stand-in for the process of interest.

Assay [1] concerns MPTP-HCl Parkinson's disease model mice. The experiment in a line: Parkinson's disease model (MPTP-HCl), beam traversal test. To be noted: MPTP-HCl/probenecid mice, 5 mg/kg body weight intraperitoneal daily, 35 days.
Method: Three month-old male wild type mice were used in the experiment. The treatment lasted for a total of 35 days. […] For all abovementioned groups, Motor skills were assessed on the 36th to 40th days after compound administration. Beam traversal test is a method commonly used in academia to detect movement coordination in animals with Parkinson's disease. […] The mice were first trained for 2 consecutive days, and taught to trained to traverse the length of the beam. On the day of the test, a mesh grid (1 cm squares) of corresponding width was placed over the beam surface leaving a ˜1 cm space between the grid and the beam surface. Animals were then videotaped while traversing the grid-surfaced beam for a total of five trials. An error was counted when, during a forward movement, a forelimb or hindlimb slipped through the grid. The number of errors made per step (referred to as “error per step scores”) was counted. An analysis of variance (ANOVA) and Dunnett post hoc comparison test are used to compare the significance of the differences between different groups of data. The difference is significant with P<0.05.

`CCc1ccc(OC/C=C/c2ccc3c(c2)C(=O)CC3)cc1` [ELB001115, (E)-6-(3-(4-ethylphenoxy)prop-1-en-1-yl)-2,3-dihydro-1H-inden-1-one]: the pEC50 is above 5.01 in the assay with klotho gene promoter; > 5.19 and 5.32 at PPARγ. In addition, in assay [1], the “number of errors per step in beam traversal test compared with disease control group” value is “significantly lower”.
Take `CCc1ccc(CC/C=C/c2ccc3c(c2)OCCC3=O)cc1` [ELB001045, (E)-7-(4-(4-ethylphenyl)but-1-en-1-yl)chroman-4-one]: the pEC50 in the assay on klotho gene promoter is above 5.01; at PPARγ, > 5.19 and 5.46. Further, the “number of errors per step in beam traversal test compared with disease control group” value in assay [1] is given as “significantly lower”.
As for `COc1ccc(CC/C=C/c2ccc3c(c2)C(=O)CC3)cc1` [ELB001116, (E)-6-(4-(4-methoxyphenyl)but-1-en-1-yl)-2,3-dihydro-1H-inden-1-one], the values for the pEC50 in the assay with klotho gene promoter and at PPARγ were above 5.01 and above 5.19, respectively. Also, the “number of errors per step in beam traversal test compared with disease control group” value in assay [1] is “significantly lower”.
As for `CCc1ccc(CC/C=C/c2ccc3c(c2)C(=O)CC3)cc1` [ELB00824, (E)-6-(4-(4-ethylphenyl)but-1-en-1-yl)-2,3-dihydro-1H-inden-1-one], in the assay with klotho gene promoter, the pEC50 was 5.82, the “induced transcriptional activity of klotho gene relative to pioglitazone” value is listed as “more than 66 folds”, the “induced transcriptional activity of klotho gene relative to rosiglitazone” value came out at 6 folds and the “klotho EC50 as fraction of that of pioglitazone” value is recorded as “less than 1/67”. Also, in the assay with klotho gene promoter, the “klotho EC50 as fraction of that of rosiglitazone” value is 1/6. For the same compound, the pEC50 at PPARγ was > 5.19 and 5.33.
Regarding `CCc1ccc(CC/C=C/c2ccc3c(c2)C(=O)COC3)cc1` [ELB001046, (E)-6-(4-(4-ethylphenyl)but-1-en-1-yl)isochroman-4-one], the negative-log EC50 (pEC50) at PPARγ is above 5.19. Also, the “number of errors per step in beam traversal test compared with disease control group” value in assay [1] is “significantly lower”.
Turning to `CCc1ccc(CC/C=C/c2ccc3c(c2)C(=O)CC3)nc1` [ELB001125, (E)-6-(4-(5-ethylpyridin-2-yl)but-1-en-1-yl)-2,3-dihydro-1H-inden-1-one], the pEC50 was above 5.01 with klotho gene promoter and above 5.19 on PPARγ. In assay [1], the “number of errors per step in beam traversal test compared with disease control group” value is on record as “significantly lower”.
